According to US5756491A, “Antiviral cobalt-organic compounds” (priority 1991, dated 1998):
Values after ≈ are worked out from the molar mass of the structure shown. Values joined by “and” are separate entries in the source; they are usually repeats but may differ in a detail not shown here. Identical values can stand only once.

What was measured:
[1] = tested on: human foreskin fibroblast (HFF) cell monolayers; assay: Toxicity effects controls: sham-inoculated compound-treated HFF monolayers; type: cell-based; conditions: Experiment 1 (Table 1); note: key: +: toxic; -: no toxicity; ±: mild toxicity; T: toxicity effects interfered with CPE rating
From the text: (§1) With sufficient stirring, all the compounds completely dissolved.
In the tables, the symbols have the meaning indicated: […]

[2] = tested on: HSV-2 (MS strain); assay: External genital lesion development in primary genital HSV-2 infection of guinea pigs; type: in vivo, Female Hartley strain guinea pigs; parameters: key to Lesion Score-Day Area Under Curve: area under 0-5+ lesion score vs day curve (score-days); key to Mean Peak Lesion Score: lesion severity on 0-5+ scale
Procedure: (§2) A series of studies were carried out to compare the activity of inventive antiviral Compounds 23, 76, and 82 in a primary genital HSV-2 infection of guinea pigs. The experiments were placebo-controlled and uninfected animals were treated with three concentrations of each of the preparations to assess skin irritation and determine the maximum tolerated dose.
(§3) The MS strain of HSV-2 was utilized for the experimental animal infection. Female Hartley strain guinea pigs (Charles River Breeding Laboratories, Kingston, N.Y.) weighing 250-300 g were inoculated intravaginally with 1.4×10^5 plaque forming units of HSV-2 one hour after being swabbed for the removal of vaginal secretions.
(§4) Groups of 10 infected guinea pigs were treated topically as stated above with 20 mg/ml (the maximum tolerated dose) of each compound beginning 6 h or 24 h after inoculation with HSV-2.
To determine the effect of therapy on the development and spread of external genital lesions, lesion severity was scored on a 0-5+ scale through the primary infection (21 days). Mean peak lesion scores and the areas under the lesion score-day curves were calculated and analyzed.
(§5) The number of animals infected over the number inoculated, lesion score-day areas and virus titer-day areas under the curve, peak lesion scores and peak virus titers between untreated and placebo-treated or placebo-treatedand drug-treated animals were compared using the Mann-Whitney U rank sum test. A p-value of 0.05 or less was considered significant.

[3] = tested on: HSV-2 (MS strain); assay: Vaginal virus replication in primary genital HSV-2 infection of guinea pigs; type: in vivo, Female Hartley strain guinea pigs
Procedure: as §2, §3, §4
To determine the effect of treatment on vaginal virus replication, swabs of vaginal secretions were obtained on days 1, 3, 5, 7, and 10 after HSV-2 inoculation, placed in a tube containing 2.0 ml of media, vortexed and frozen at -70° until titrated for HSV-2. When all samples were collected, they were thawed, diluted serially and HSV-2 titers were determined using rabbit kidney cells in a microtiter CPE assay. Mean peak virus titers and areas under the virus titer-day curves were calculated and analyzed.
as §5

[4] = tested on: HSV-1 McKrae Strain; assay: Direct virucidal efficacy against HSV-1 on HFF monolayers; type: cell-based; conditions: for virucidal efficacy (HSV-1 titer): Experiment 1 (Table 2), 24 h PI; for effective virucidal concentration IC50 / effective virucidal concentration IC90: HSV-1
Procedure: HSV-1 McKrae Strain was diluted to a final concentration of 10^5 PFU/ml in minimal essential medium (MEM). Hereinafter, this dilution is referred to as the HSV-1 Suspension for convenience.
as §1
Each of the drug solutions were mixed with the HSV-1 Suspension in a 1:1 ratio. The drug and HSV-1 Suspension mixture was incubated at 37° C. for thirty minutes with agitation every ten minutes. After the incubation, fifty microliter aliquots were overlaid onto triplicate confluent human foreskin fibroblast (HFF) cell monolayers. The inoculum was absorbed for thirty minutes and then a medium containing the appropriate drug concentration in MEM was added to the monolayers to a final volume of 0.5 milliliters per culture-well. The monolayers were incubated at 37° C. The developing HSV-1 Cytopathology was monitored daily for two days by inverted light microscopy. Titers were calculated by multiple regression analysis. All data is presented as the average PFU/ml reduction at 24 and/or 48 hours after inoculation (PI).
1. HSV-1 inoculated, non-compound treated HFF monolayers were included as "positive controls"; and […]

[5] = tested on: HCMV; assay: HCMV plaque assay; type: cell-based; conditions: Human betaherpesvirus 5, HCMV
Procedure: The procedure is essentially the same as for HSV analysis with the following minor changes. The agarose used for the initial overlay and the two subsequent overlays is 0.8% rather than 1%. The assay is incubated for 14 days with the additional 1 ml overlays being applied on days four and eight.
The procedure for the liquid overlay plaque assay is similar to that using the agarose overlay. The procedure for adding the virus is the same as for the regular plaque assay. The drugs are made up in a concentration to be used in MEM with 2% FBS. The drugs are not made up at 2×concentration as in previous assays but are made up at the desired concentration. For HSV-1 and HSV-2 assays, an antibody preparation obtained from Baxter Health Care Corporation is diluted 1:500 and added to the media that the drug is diluted in. For CMV and VZV, no antibody in the overlay is utilized. For the CMV assay, additional medium without new drug is added on day six and allowed to incubate for a total of 11 days. For VZV, additional media is added on day five and incubated for a total of eight days. At the end of the incubation period for all of the assays, the medium is removed, the cells washed and then stained with 0.1% crystal violet solution for ten minutes. […]
I. EC50 values were also determined for each of the viruses tested for known antiviral agents. […]

[6] = tested on: HFF cells; assay: Cell proliferation assay; type: cell-based, human; conditions: rapidly growing cells
Procedure: Twenty-four hours prior to assay, HFF cells are seeded in 6-well plates at a concentration of 2.5×10^4 cells per well in MEM containing 10% FBS. On the day of the assay, drugs are diluted serially in MEM containing 10% FBS at increments of 1:5 covering a range from 100 μg/ml to 0.03 μg/ml. […] The media from the wells is then aspirated and 2 ml of each drug concentration is then added to each well. The cells are then incubated in a Co2 incubator at 37° C. for 72 h. At the end of this time, the media-drug solution is removed and the cells washed. […] The cell-media mixture is then pipetted up and down vigorously to break up the cell suspension and 0.2 ml of the mixture is added to 9.8 ml of Isoton III and counted using a Coulter Counter. Each sample is counted three times with three replicate wells per sample.

CC([O-])=CC(C)=NCCN=C(C)C=C(C)[O-].[Br-].[Co+3].c1ccncc1.c1ccncc1 [Compound 76]
toxicity effects ([1]; 24 h PI, 0.001 mg/ml): - | toxicity effects ([1]; 24 h PI, 0.01 mg/ml): - | toxicity effects ([1]; 24 h PI, 0.1 mg/ml): - | toxicity effects ([1]; 48 h PI, 0.001 mg/ml): - | toxicity effects ([1]; 48 h PI, 0.01 mg/ml): - | toxicity effects ([1]; 48 h PI, 0.1 mg/ml): - | toxicity effects ([1]; 48 h PI, 1 mg/ml): + | toxicity effects ([1]; 48 h PI, 10 mg/ml): + | Lesion Score-Day Area Under Curve ([2]; 20 mg/ml, started +6h): 4.4 | Mean Peak Lesion Score ([2]; 20 mg/ml, started +6h): 0.4 | P-Value for Mean Peak Lesion Score ([2]; 20 mg/ml, started +6h): < 0.001 | Lesion Score-Day Area Under Curve ([2]; 20 mg/ml, started +24h): 37.2 | Mean Peak Lesion Score ([2]; 20 mg/ml, started +24h): 3.3 | lesion AUC difference vs untreated control animals ([2]; started +24 h, vs untreated control): not significant | # Infected/# Inoculated ([3]; 20 mg/ml, started +6h): 5/10 | Mean Peak Virus Titer ([3]; 20 mg/ml, started +6h): 1.0 | P-Value for Mean Peak Virus Titer ([3]; 20 mg/ml, started +6h): < 0.001 | Virus Titer-Day Area Under Curve ([3]; 20 mg/ml, started +6h): 2.9 | # Infected/# Inoculated ([3]; 20 mg/ml, started +24h): 10/10 | Mean Peak Virus Titer ([3]; 20 mg/ml, started +24h): 4.3 | Virus Titer-Day Area Under Curve ([3]; 20 mg/ml, started +24h): 17.7 | infectivity rate ([3]; treatment beginning 6 h after infection): 50% | virucidal efficacy (HSV-1 titer) ([4]; 0.001 mg/ml): 10^5 PFU/ml | virucidal efficacy (HSV-1 titer) ([4]; .01 mg/ml): 10^3 PFU/ml | effective virucidal concentration IC50 ([4]; Experiment 1 (Table 3)): 10 µg/mL | effective virucidal concentration IC90 ([4]; Experiment 1 (Table 3)): 100 to 1000 µg/mL | effective virucidal concentration IC50 ([4]; Experiment 2 (Table 6)): 10 µg/mL | effective virucidal concentration IC90 ([4]; Experiment 2 (Table 6)): 100 to 1000 µg/mL

Nc1nc2c(ncn2COC(CO)CO)c(=O)[nH]1 [DHPG]
EC50 [5]: 0.9 µg/mL (≈ 3.53 µM)

O=c1[nH]c(=O)n([C@@H]2O[C@H](CO)[C@@H](O)[C@@H]2F)cc1I [FIAU, 2'-fluoro-5-iodo-arabinosyl-uracil]
toxicity IC50, cell proliferation [6]: 8.4 MCG/ML and 3.3 MCG/ML
